Converted amounts (≈) assume the structure as drawn. Where two headings read alike, the source gives them in different places.
Legend:
C. albic. = details: planktonic; cited from earlier work
[1] = tested on: Planktonic Anaerobic Bacteria (SRB); test: Log reduction of planktonic sulfate-reducing bacteria (Example 4, Procedure C); format: cell-based
Experimental: A stock culture of the SRB to be tested was grown in a commercial SRB vial for 4 days at 37° C. The vial was then purged for approximately 30 seconds with argon to remove excess hydrogen sulfide. At that time a series of SRB vials were each inoculated with 0.1 ml of this stock culture. These vials were then incubated at 37° C. for 4 days. Each of these vials was then purged with argon. Appropriate stock solutions of biocide were prepared so that additions of 0.1-1.0 ml provided the desired concentration of biocide in each SRB vial. After 1 hour and 4 hour contact times, 1 ml aliquots were removed from each vial and were injected into fresh SRB vials. These vials were then serially diluted for enumeration.
(§1) To minimize error, all biocide concentration/contact time points reported below were tested in duplicate and the results averaged. Results are reported as log reduction of microorganisms compared to control cylinders treated in the same manner except that no biocide was employed.
The same sample of planktonic SRB as used in Example 3 was cultivated following above Procedure C. Respective samples of bacteria were treated with varying concentrations of OPA and the log reduction in the number of bacteria was recorded in each case.

P. vulg. = details: planktonic; cited from earlier work
S. aureus = details: planktonic; cited from earlier work
[2] = tested on: Aerobic Bacterial Biofilms; test: Log reduction of sessile microorganisms in aerobic biofilm (Example 2, Procedure A); format: cell-based, predominantly Pseudomonas species; details: for log reduction at 50 ppm / log reduction at 100 ppm / log reduction at 200 ppm: Pseudomonas, 7.4 represents complete kill
Experimental: (§2) Approximately 20 ml of sterile Bacto TGE broth (Difco Labs) were placed in a sterile Petri dish (15×100 mm). To this media, 10 ml of a 24 hour culture of the aerobic organisms to be tested were added. Sterile, stainless steel penicylinders (10 mm O.D., 7 mm I.D., 10 mm long) were then placed in the inoculated media. The cylinders were placed in the dish either on-end or on-side. The Petri dish containing the cylinders was then incubated at 37° C. for 48 hours. At that time, cylinders were individually removed aseptically using forceps, blotted on sterile filter paper, and washed three times by dipping in sterile saline solution. This procedure was used to ensure that only organisms that were firmly attached in the biofilm were tested.
(§3) Two biofilm-coated cylinders were then carefully dropped into separate 10 ml test tubes containing biocide solutions of varying concentrations. After one hour and four hour contact times, a cylinder was aseptically transferred to a fresh tube of TGE broth and vortexed for 30 seconds to remove all sessile organisms. The resulting broth suspension was then serially diluted and plated using TGE agar for enumeration. Plates were incubated for 48 hours at 37° C. before counting.
as §1
Respective samples of the five compounds were tested against the sessile microorganisms embedded in biofilms. The biofilm was comprised of a variety of microorganisms, but contained predominantly Pseudomonas species cultivated using Procedure A. The number of organisms were counted after one hour and four hours of contact.

Solubility in water = format: physicochemical; details: 25° C., read-out: limit of solubility in water
P. aerug. = details: planktonic; cited from earlier work
[3] = tested on: Aerobic Bacterial Biofilms (oil field isolate); test: Log reduction of sessile aerobic bacteria in biofilm on stainless steel penicylinders (Example 1, Procedure A); format: cell-based, predominantly Pseudomonas species; details: for log reduction at 5 ppm / log reduction at 10 ppm / log reduction at 25 ppm: Pseudomonas, 5.1 represents complete kill
Experimental: as §2, §3, §1
An oil field isolate of aerobic bacteria was utilized in all aerobic biofilm experiments. This culture was taken from a water-flooded oil well in Texas and was tentatively identified as containing predominantly Pseudomonas species. The biofilms were developed following above Procedure A. Respective samples were treated with various concentrations of the biocides listed below and the number of bacteria were counted after one hour and four hours of contact.

[4] = tested on: Sessile Anaerobic Bacterial Biofilms (SRB); test: Log reduction of sessile sulfate-reducing bacteria in biofilm on mild steel penicylinders (Example 3, Procedure B); format: cell-based; details: for log reduction at 10 ppm / log reduction at 25 ppm / log reduction at 50 ppm: 4 represents complete kill
Experimental: SRB-containing media were prepared as follows:
14.5 g of Bacto Sulfate API Broth (Difco Labs) and 2.0 g Bacto Agar (Difco Labs) were added to 1000 ml distilled water. The solution was heated and stirred until all components were dissolved. A 1% solution of sodium thioglycollate in distilled water was also prepared. Both solutions were then autoclaved at 121° C. for 30 minutes. After cooling, 5 g of the sodium thioglycollate solution was added to the media mixture.
Mild steel penicylinders (10 mm O.D., 7 mm I.D., 10 mm long) were cleaned by soaking for 10 minutes in 0.5% hydrochloric acid. Cylinders were then rinsed three times with distilled water and dried before use.
A 4 oz screw-capped bottle was purged with argon to remove oxygen, capped and then autoclaved. After cooling, 100 ml of sterile SRB media was added to this bottle. Cleaned penicylinders were then added along with 10 ml of a five day old SRB culture. All operations were conducted under a constant stream of argon to minimize oxygen levels. The bottle was then incubated for 7-14 days (depending on the SRB used) at 37° C. At that time, cylinders were individually removed aseptically using forceps and blotted on sterile filter paper.
Two biofilm-coated cylinders were then carefully dropped into separate 10 ml test tubes of deaerated biocide solutions of varying concentrations. All of the biocide and control solutions contained 30 ppm of a non-ionic nonyl phenol ethoxylate surfactant (TERGITOL® NP-4, Union Carbide Chemicals and Plastics Company Inc., Danbury, CT). After one hour and four hour contact times, a cylinder was removed, blotted on sterile filter paper, and placed into a commercially available SRB vial (C&S Laboratories, Tulsa, OK). The vial was then sonicated (Bransonic Model 12) for 30 seconds to remove sessile organisms. The resulting solution was serially diluted into additional SRB vials for enumeration. Vials were grown for 28 days at 37° C. before reading. Blackening of the vials was used as an indication of growth.
as §1
A SRB culture was obtained from a water-flooded oil well in Alaska. The bacteria were then cultivated on the walls of the steel penicylinders using Procedure B described above. Respective samples were then contacted with glutaraldehyde, formaldehyde or OPA for one and four hours with the following results: […]

K. pneum. = details: planktonic; cited from earlier work
[5] = 1 hr contact, read-out: log reduction after 1 hr
[6] = 4 hr contact, read-out: log reduction after 4 hr

O=Cc1ccccc1C=O [OPA, ortho-phthalaldehyde]
MIC (C. albic.): 0.25 mMole % | log reduction at 100 ppm ([1]; 1 hr contact, 4 represents complete kill, read-out: log reduction after 1 hr): 0 | log reduction at 100 ppm ([1]; 4 hr contact, 4 represents complete kill, read-out: log reduction after 4 hr): 0 | log reduction at 500 ppm ([1]; 500 ppm, 1 hr contact, 4 represents complete kill, read-out: log reduction after 1 hr): 2 to 3 | log reduction at 250 ppm ([1]; 1 h, read-out: log reduction after 1 hr): 1 | log reduction at 250 ppm ([1]; 4 h, read-out: log reduction after 4 hr): 1 to 2 | MBC ([1]; Example 4, read-out: concentration for complete kill of planktonic SRB (not achieved at concentrations as high as)): > 500 µg/mL | MIC (P. vulg.): 0.25 mMole % | MIC (S. aureus): 0.25 mMole % | log reduction at 50 ppm [2, 5]: 2.9 | log reduction at 50 ppm [2, 6]: 7.4 | log reduction at 100 ppm [2, 5]: 3.4 | log reduction at 100 ppm [2, 6]: 7.4 | log reduction at 200 ppm [2, 5]: 6 | log reduction at 200 ppm [2, 6]: 7.4 | effectiveness against sessile microorganisms in biofilms versus other aldehydes ([2]; other aldehydes at four times the concentration of OPA): surprising effectiveness | solubility (Solubility in water): ~50 mg/mL (≈ 373000 µM) | MIC (P. aerug.): 0.25 mMole % | log reduction at 5 ppm [3, 5]: 0.8 | log reduction at 5 ppm [3, 6]: 5.1 | log reduction at 10 ppm [3, 5]: 1.4 | log reduction at 10 ppm [3, 6]: 5.1 | log reduction at 25 ppm [3, 5]: 5.1 | log reduction at 25 ppm [3, 6]: 5.1 | effectiveness versus glutaraldehyde and formaldehyde ([3]; aerobic biofilm, Example 1): outperformed both glutaraldehyde and formaldehyde | log reduction at 10 ppm [4, 5]: 3 | log reduction at 10 ppm [4, 6]: 4 | log reduction at 25 ppm [4, 5]: 3 | log reduction at 25 ppm [4, 6]: 4 | log reduction at 50 ppm [4, 5]: 4 | log reduction at 50 ppm [4, 6]: 4 | MBC ([4]; Example 3, read-out: OPA concentrations at which a complete kill of sessile microorganisms occurred (as low as)): 10 to 50 µg/mL (≈ 74.6 to 373 µM) | MBC ([4]; within 4 hours, read-out: concentration that completely kills all sessile anaerobic organisms in the biofilm): 10 µg/mL (≈ 74.6 µM) | MIC (K. pneum.): 0.25 mMole %

Source: US5128051A, “Method for the control of biofouling” (Union Carbide Chemicals & Plastics Technology Corporation, priority 1991, dated 1992)
